Test results published in US12004538B2, “Method for improving meat quality” (CAN TECHNOLOGIES, INC., priority 2017, dated 2024).
Where two headings read alike, the source gives them in different places.

Tests used:
[1] = for Carcass yield: HCW divided by live weight
Procedure: (§1) The trial was conducted in the grower-finisher unit 1 and 2 of Cargill Innovation Center Velddriel, The Netherlands. Pigs were allocated with 64 days of age. A randomized block design was used using 6 treatments divided over 48 pens by using 8 weight blocks in total. A pen was the experimental unit. Each pen contained 4 animals. Barrows and gilts were equally distributed among treatments. The experiment consisted of a 3×2 factorial design with three different levels of Bolifor™ CNFR (calcium nitrate) and with and without heat stress, with 8 replications per treatment (Table 1). During phase 1 (day 0 to day 24, i.e., d0-24) a common diet was fed. In phase 2 (d24-56) and phase 3 (d56-101) pigs were fed one of the 6 experimental diets (pellet form).
On day 83 of the trial one pig per pen was removed and transported to a commercial processing plant. On day 102, pigs were weighed and transported to a commercial processing plant (Compaxo, Zevenaar, The Netherlands). Each pig received an ear tag according to pen number to allow for data retrieval by pen and carcass data collection at the packing plant. Hot carcass weights (HCW) were measured immediately after evisceration and each carcass was evaluated for backfat, loin depth, and lean percentage. Fat depth and loin depth were measured with an optical probe inserted between 3rd and 4th last rib. Lean percentage was provided from the packing plant by using a proprietary equation. Percentage yield was calculated by dividing HCW by live weight obtained before transport to the packing plant.
Temperature, humidity and ventilation were automatically controlled. During phase 1 (from experimental day 0 until 24) pigs were not submitted to heat stress conditions. From experimental day 32 onwards pigs in Unit 2 were exposed to heat stress conditions (total period length of 66 days). During this period of heat stress the temperature was raised to 30° C. (from 8 AM-6 PM) and decreased to 26° C. from 6 PM-8 AM. During the heat stress period the relative humidity was kept at 80% in Unit 2 and the minimum ventilation was adjusted according to the body weight of the pigs.

longissimus muscle = conditions: for L* day 2 / a* day 2 / b* day 2 / pH* day 2: 24 hours after slaughter; for L* day 1 / a* day 1 / b* day 1: day of slaughter
Procedure: as §1
At slaughter, meat samples were taken to measure meat color. Color was evaluated at the longissimus muscle for L* (lightness), a* (redness), and b* (yellowness) values using a Minolta spectrophotometer. The first measurement was taken 3 hours postmortem and the second measurement 24 hours after first measurement. At the time of the 2nd color measurement, pH was also measured.

[2] = Procedure: as §1
Feed intake and body weight were measured at day 0, 24, 39, 59, 83 and 101. Ultrasound measurements were made at day 24, 59 and 101. To get more insight on metabolic defenses when pigs are submitted to heat stress, urine samples were taken at experimental day 84 (105 kg average BW) in the morning from the control animals (16 animals) in the heat stress group and the non-heat stressed group to measure pH, and calcium and phosphorus content. The pH was measured right after collection. During the first three weeks of heat stress skin temperature was measured daily with an infrared device (Testo 845). From 3 weeks onwards, skin temperature was measured weekly.
For comparison of the different treatments, the parameters ADG, ADFI and Feed conversion ratio (FRC) (all normally distributed) were subjected to Mixed Model analysis, using SAS JMP (Version 9.0, SAS Institute Inc., Cary, NC, 2008) according to the following statistical model: Yijk=μ+αi+βj+(αβ)ij+Sexk+δi1+BW24m+εijklm Where, • μ=population mean; • αi=main effect of temperature/room i (A), i=1, 2; • βj=main effect of calcium nitrate level j (B), j=1, 2, 3; • Sex1=random effect of sex, 1=barrow, gilt; • BW24m=BW at day 24 (covariable) • (αβ)ij is the interaction effect of A and B; for each j and for each i • δik˜Niid(0, s^2a) is the whole plot (block) error, k=1, 2, . . . , 8; • εijk˜Niid(0, s^2e) is the sub plot (pen) error, k=1, 2, . . . , 8. Linear and quadratic contrast for calcium nitrate level was tested. Differences between treatment means were assumed to be significant based on the probability of P<0.05 (Student t-test); unless other probability value is stated.

[3] = young piglets
[4] = cited from earlier work
[5] = 0.063% nitrate inclusion in feed
[6] = heat stress, nitrate 0.063% in diet
[7] = heat stress, nitrate 0.1% in diet
[8] = normal temperature, nitrate 0.063% in diet
[9] = normal temperature, nitrate 0.1% in diet
[10] = grower-finisher pigs, nitrate in the water

## O=[N+]([O-])[O-].O=[N+]([O-])[O-].[Ca+2] [Nitrate, calcium nitrate]
[1]; [5]
  carcass yield, rank among treatments: highest
  slaughter weight, rank among treatments: lowest slaughter weight
[1]; P<0.05
  effect of nitrate level on carcass yield: quadratic effect
  effect of nitrate level on full weight: quadratic effect
  effect of nitrate level on slaughter weight: quadratic effect
[1]; [6]
  Backfat: 18.7 mm
  Carcass weight: 100.2 kg
  Lean meat: 56.1%
  Muscle: 68.6 mm
  Slaughter weight: 122.8 kg
  Weight full: 125.0 kg
  Carcass yield: 81.7%
[1]; [7]
  Backfat: 18.9 mm
  Carcass weight: 101.2 kg
  Lean meat: 55.9%
  Muscle: 68.5 mm
  Slaughter weight: 124.9 kg
  Weight full: 127.6 kg
  Carcass yield: 81.2%
[1]; normal temperature, 0.063%
  carcass weight compared to the other treatments: higher carcass weight
[1]; [8]
  Backfat: 20.3 mm
  Carcass weight: 105.1 kg
  Lean meat: 55.0%
  Muscle: 67.8 mm
  Slaughter weight: 126.0 kg
  Weight full: 128.2 kg
  Carcass yield: 83.6%
[1]; [9]
  Backfat: 16.8 mm
  Carcass weight: 99.5 kg
  Lean meat: 57.4%
  Muscle: 69.3 mm
  Slaughter weight: 127.3 kg
  Weight full: 129.6 kg
  Carcass yield: 78.3%
Longissimus muscle; [6]
  L* day 2: 55.5
  a* day 2: 9.5
  b* day 2: −0.4
  pH* day 2: 5.36
  L* day 1: 43.1
  a* day 1: 7.0
  b* day 1: −1.5
Longissimus muscle; [7]
  L* day 2: 55.1
  a* day 2: 9.8
  b* day 2: −0.7
  pH* day 2: 5.35
  L* day 1: 42.5
  a* day 1: 7.1
  b* day 1: −1.6
Longissimus muscle; [8]
  L* day 2: 53.5
  a* day 2: 9.8
  b* day 2: −1.0
  pH* day 2: 5.60
  L* day 1: 42.5
  a* day 1: 7.3
  b* day 1: −1.5
Longissimus muscle; [9]
  L* day 2: 53.7
  a* day 2: 9.9
  b* day 2: −0.9
  pH* day 2: 5.58
  L* day 1: 43.0
  a* day 1: 7.2
  b* day 1: −1.4
Longissimus muscle; main effect of nitrate level, P=0.012
  parameter a* at day 2 with increasing level of calcium nitrate in the diet: linearly increased
Longissimus muscle; pig, in vivo
  pH values in longissimus dorsi, main effect of nitrate: no significant effects
[2]; day 83 and 101, P<0.05
  effect of calcium nitrate level on weight: quadratic effect
[2]; overall period (24-101 days), nitrate level 1 (0.063%), heat stress conditions, tendency P=0.09
  FCR: better FCR
[2]; phase 2 (d24-59) and whole trial (d24-101), P<0.05
  FCR with increasing level of calcium nitrate in the diet: linearly increased
[2]; phase 3 (d59-101), P<0.10
  effect of calcium nitrate level on ADG: tended to show a quadratic effect
[2]; phase 3 and whole trial, P<0.05
  effect of calcium nitrate level on ADFI: quadratic effect
[2]; whole trial (d24-101), P<0.05
  effect of calcium nitrate level on ADG: quadratic effect
[3]; feed dose titration 0.2, 0.4, 0.6, 0.8 and 1.0% calcium nitrate
  adverse effects on performance: no adverse effects
[3]; highest level of calcium nitrate inclusion
  met-hemoglobin: stayed well within levels considered as safe
[4]; [10]
  effect on hemoglobin or met-hemoglobin in the blood: no effect
  effect on meat and liver NO content and on meat color, smell or taste: no effect
[4]; swine feed
  level of nitrate in swine feed that can be dosed safely: ≥ 0.1%
